Measured values: patent US11021479B2, “Pyridoquinazoline derivatives useful as protein kinase inhibitors” (ONCOSTELLAE, S.L., priority 2017, dated 2021)

Key:
Type in all cases: biochemical
JAK1 = target: T1, JAK1 (Homo sapiens, UniProt P23458); experiment: Functional assay of protein Janus kinases (Caliper mobility shift), JAK1; settings: ATP 100 μM, incubation 150 min; read-out: JAK1 enzymatic activity (IC50) score
T1 construct: purchased Carna Biosciences 08-144
Procedure: (§1) The functional assays of protein Janus kinases were carried out in 384-well plates using a final volume of 30 μl. […] The reaction was reads in a “Caliper EzReader LabChip 3000” (Caliper, Hopkinton, Mass.) reader, based on electrophoretic mobility of the fluorescent substrate and the phosphorylated product.
(§2) The inhibition percentages were calculated by comparison between control reactions, for 100% of inhibition and reactions with only DMSO for 0% of inhibition.

JAK2 = target: T2, JAK2 (Homo sapiens, UniProt O60674); experiment: Functional assay of protein Janus kinases (Caliper mobility shift), JAK2; settings: ATP 300 μM, incubation 30 min; read-out: JAK2 enzymatic activity (IC50) score
T2 construct: purchased Carna Biosciences 08-045
Procedure: as §1, §2

JAK3 = target: T3, JAK3 (Homo sapiens, UniProt P52333); experiment: Functional assay of protein Janus kinases (Caliper mobility shift), JAK3; settings: ATP 8 μM, incubation 30 min; read-out: JAK3 enzymatic activity (IC50) score
T3 construct: purchased Carna Biosciences 08-046
Procedure: as §1, §2

TYK2 = target: T4, TYK2 (Homo sapiens, UniProt P29597); experiment: Functional assay of protein Janus kinases (Caliper mobility shift), TYK2; settings: ATP 20 μM, incubation 45 min; read-out: TYK2 enzymatic activity (IC50) score
T4 construct: purchased Carna Biosciences 08-147
T4 sequence (P29597 871-1187 limits assumed): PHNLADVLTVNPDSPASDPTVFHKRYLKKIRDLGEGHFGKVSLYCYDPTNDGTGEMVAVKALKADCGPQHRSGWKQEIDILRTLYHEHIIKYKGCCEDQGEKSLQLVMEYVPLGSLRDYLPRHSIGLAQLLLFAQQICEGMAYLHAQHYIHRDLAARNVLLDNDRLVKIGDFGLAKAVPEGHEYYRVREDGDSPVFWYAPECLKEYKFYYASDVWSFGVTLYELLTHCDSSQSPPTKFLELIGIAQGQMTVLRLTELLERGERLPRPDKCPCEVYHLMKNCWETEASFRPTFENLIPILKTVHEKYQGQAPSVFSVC
Procedure: as §1, §2

T2 sequence (O60674 826-1132 limits assumed): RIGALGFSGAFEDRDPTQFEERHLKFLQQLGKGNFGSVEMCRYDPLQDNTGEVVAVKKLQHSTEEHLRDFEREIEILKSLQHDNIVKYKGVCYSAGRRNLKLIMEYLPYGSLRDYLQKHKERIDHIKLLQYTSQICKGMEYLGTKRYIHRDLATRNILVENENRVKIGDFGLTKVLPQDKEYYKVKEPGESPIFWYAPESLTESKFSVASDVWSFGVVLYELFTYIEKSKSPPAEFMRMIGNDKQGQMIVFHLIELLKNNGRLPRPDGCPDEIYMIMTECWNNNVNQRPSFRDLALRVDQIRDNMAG
T3 sequence (P52333 795-1124 limits assumed): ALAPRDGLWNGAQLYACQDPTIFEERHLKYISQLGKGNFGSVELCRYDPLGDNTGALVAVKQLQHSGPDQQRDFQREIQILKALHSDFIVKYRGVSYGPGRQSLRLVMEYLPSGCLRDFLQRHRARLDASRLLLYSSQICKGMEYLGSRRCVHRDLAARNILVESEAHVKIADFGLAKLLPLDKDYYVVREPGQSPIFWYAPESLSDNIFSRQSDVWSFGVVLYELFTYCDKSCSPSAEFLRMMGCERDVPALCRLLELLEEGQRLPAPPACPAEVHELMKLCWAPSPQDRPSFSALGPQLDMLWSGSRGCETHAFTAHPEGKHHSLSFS
T1 sequence (P23458 850-1154 limits assumed): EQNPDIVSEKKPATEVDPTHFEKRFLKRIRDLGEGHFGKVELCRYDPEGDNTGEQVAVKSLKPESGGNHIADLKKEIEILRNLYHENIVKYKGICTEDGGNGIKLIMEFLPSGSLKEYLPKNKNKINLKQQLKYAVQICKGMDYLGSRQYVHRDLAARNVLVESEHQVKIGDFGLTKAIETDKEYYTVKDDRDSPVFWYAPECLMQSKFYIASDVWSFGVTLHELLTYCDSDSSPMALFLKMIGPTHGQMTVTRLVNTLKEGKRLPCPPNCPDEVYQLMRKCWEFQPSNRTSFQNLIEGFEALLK

Row | Compound | IC50 (JAK1) [nM] | IC50 (JAK2) [nM] | IC50 (JAK3) [nM] | IC50 (TYK2) [nM]
1 | CN1CCC(NC(=O)c2cccn3c(=O)c4cc(C5CC5)ccc4nc23)CC1 [Example 3, 2-cyclopropyl-N-(1-methylpiperidin-4-yl)-11-oxo-11H-pyrido[2,1-b]quinazoline-6-carboxamide] | > 1000 | > 1000 | 100 to 1000 | > 1000
2 | O=C(NC1CCOCC1)c1cccn2c(=O)c3cc(C4CC4)ccc3nc12 [Example 4, 2-cyclopropyl-11-oxo-N-(tetrahydro-2H-pyran-4-yl)-11H-pyrido[2,1-b]quinazoline-6-carboxamide] | > 1000 | > 1000 | 100 to 1000 | < 100
3 | CC1COCCC1NC(=O)c1cccn2c(=O)c3cc(C4CC4)ccc3nc12 (centres unmarked) [Example 5, 2-cyclopropyl-N-(3-methyltetrahydro-2H-pyran-4-yl)-11-oxo-11H-pyrido[2,1-b]quinazoline-6-carboxamide] | > 1000 | > 1000 | < 100 | < 100
4 | C[C@]1(O)CC[C@H](NC(=O)c2cccn3c(=O)c4cc(C5CC5)ccc4nc23)CC1 [Example 6, 2-cyclopropyl-N-((1R,4R)-4-hydroxy-4-methylcyclohexyl)-11-oxo-11H-pyrido[2,1-b]quinazoline-6-carboxamide] | > 1000 | > 1000 | < 100 | < 100
5 | O=C(N[C@H]1CC[C@H](O)CC1)c1cccn2c(=O)c3cc(C4CC4)ccc3nc12 [Example 7, 2-cyclopropyl-N-((1R,4R)-4-hydroxycyclohexyl)-11-oxo-11H-pyrido[2,1-b]quinazoline-6-carboxamide] | > 1000 | > 1000 | < 100 | 100 to 1000
6 | O=C(NC1CCCCC1O)c1cccn2c(=O)c3cc(C4CC4)ccc3nc12 (centres unmarked) [Example 8, 2-cyclopropyl-N-(2-hydroxycyclohexyl)-11-oxo-11H-pyrido[2,1-b]quinazoline-6-carboxamide] | > 1000 | > 1000 | 100 to 1000 | < 100
7 | O=C(N[C@@H]1CCCC[C@H]1O)c1cccn2c(=O)c3cc(C4CC4)ccc3nc12 [Example 9, 2-cyclopropyl-N-((1R,2R)-2-hydroxycyclohexyl)-11-oxo-11H-pyrido[2,1-b]quinazoline-6-carboxamide] | > 1000 | > 1000 | 100 to 1000 | > 1000
8 | O=C(N[C@H]1CCCC[C@H]1O)c1cccn2c(=O)c3cc(C4CC4)ccc3nc12 [Example 10, 2-cyclopropyl-N-((1S,2R)-2-hydroxycyclohexyl)-11-oxo-11H-pyrido[2,1-b]quinazoline-6-carboxamide] | > 1000 | > 1000 | < 100 | < 100
9 | O=C(N[C@@H]1CCCC[C@@H]1O)c1cccn2c(=O)c3cc(C4CC4)ccc3nc12 [Example 11, 2-cyclopropyl-N-((1R,2S)-2-hydroxycyclohexyl)-11-oxo-11H-pyrido[2,1-b]quinazoline-6-carboxamide] | > 1000 | > 1000 | < 100 | 100 to 1000
10 | O=C(N[C@H]1CCCC[C@@H]1O)c1cccn2c(=O)c3cc(C4CC4)ccc3nc12 [Example 12, 2-cyclopropyl-N-((1S,2S)-2-hydroxycyclohexyl)-11-oxo-11H-pyrido[2,1-b]quinazoline-6-carboxamide] | > 1000 | > 1000 | 100 to 1000 | 100 to 1000
11 | O=C(NC1CCOC1)c1cccn2c(=O)c3cc(C4CC4)ccc3nc12 (centres unmarked) [Example 14, 2-cyclopropyl-11-oxo-N-(tetrahydrofuran-3-yl)-11H-pyrido[2,1-b]quinazoline-6-carboxamide] | > 1000 | > 1000 | 100 to 1000 | < 100
12 | O=C(NC1CCC(F)(F)CC1)c1cccn2c(=O)c3cc(C4CC4)ccc3nc12 [Example 15, 2-cyclopropyl-N-(4,4-difluorocyclohexyl)-11-oxo-11H-pyrido[2,1-b]quinazoline-6-carboxamide] | > 1000 | > 1000 | < 100 | 100 to 1000
13 | O=C(NC1CCCC1)c1cccn2c(=O)c3cc(O)ccc3nc12 [Example 18, N-cyclopentyl-2-hydroxy-11-oxo-11H-pyrido[2,1-b]quinazoline-6-carboxamide] | > 1000 | > 1000 | 100 to 1000 | < 100
14 | O=C(NC1CCCCC1)c1cccn2c(=O)c3cc(F)ccc3nc12 [Example 24, N-cyclohexyl-2-fluoro-11-oxo-11H-pyrido[2,1-b]quinazoline-6-carboxamide] | > 1000 | > 1000 | 100 to 1000 | 100 to 1000
15 | O=C(NC1CCCC1)c1cccn2c(=O)c3cc(Br)ccc3nc12 [Example 25, 2-bromo-N-cyclopentyl-11-oxo-11H-pyrido[2,1-b]quinazoline-6-carboxamide] | > 1000 | > 1000 | < 100 | < 100
16 | O=C(NC1CCCCC1)c1cccn2c(=O)c3cc(Br)ccc3nc12 [Example 26, 2-bromo-N-cyclohexyl-11-oxo-11H-pyrido[2,1-b]quinazoline-6-carboxamide] | > 1000 | > 1000 | 100 to 1000 | 100 to 1000
17 | O=C(N[C@H]1CCCC[C@H]1O)c1cccn2c(=O)c3cc(Br)ccc3nc12 [Example 27, 2-bromo-N-((1S,2R)-2-hydroxycyclohexyl)-11-oxo-11H-pyrido[2,1-b]quinazoline-6-carboxamide] | > 1000 | > 1000 | 100 to 1000 | 100 to 1000
18 | O=C(NC1CCCCC1)c1cccn2c(=O)c3cc(-c4ccccc4)ccc3nc12 [Example 28, N-cyclohexyl-11-oxo-2-phenyl-11H-pyrido[2,1-b]quinazoline-6-carboxamide] | > 1000 | > 1000 | 100 to 1000 | 100 to 1000
19 | O=C(NC1CCCC1)c1cccn2c(=O)c3cc(-c4ccncc4)ccc3nc12 [Example 32, N-cyclopentyl-11-oxo-2-(pyridin-4-yl)-11H-pyrido[2,1-b]quinazoline-6-carboxamide] | > 1000 | > 1000 | 100 to 1000 | < 100
20 | O=C(N[C@H]1CCCC[C@H]1O)c1cccn2c(=O)c3cc(-c4ccncc4)ccc3nc12 [Example 34, N-((1S,2R)-2-hydroxycyclohexyl)-11-oxo-2-(pyridin-4-yl)-11H-pyrido[2,1-b]quinazoline-6-carboxamide] | > 1000 | > 1000 | 100 to 1000 | 100 to 1000
21 | CN1CCN(c2ccc3nc4c(C(=O)NC5CCCC5)cccn4c(=O)c3c2)CC1 [Example 35, N-cyclopentyl-2-(4-methylpiperazin-1-yl)-11-oxo-11H-pyrido[2,1-b]quinazoline-6-carboxamide] | > 1000 | > 1000 | < 100 | 100 to 1000
22 | CN1CCN(c2ccc3nc4c(C(=O)N[C@H]5CCCC[C@H]5O)cccn4c(=O)c3c2)CC1 [Example 37, N-((1S,2R)-2-hydroxycyclohexyl)-2-(4-methylpiperazin-1-yl)-11-oxo-11H-pyrido[2,1-b]quinazoline-6-carboxamide] |  |  | 100 to 1000 | < 100
